US20240360194A1, “New Peptides as Potent and Selective GIP Receptor Agonists” (Sanofi, priority 2021, published 2024)
Values after ≈ are worked out from the molar mass of the structure shown. Like-named read-outs stand apart in the source and are kept apart here.

Tests used:
[1] = Solubility assessment (UHPLC-UV of supernatant, target 10 mg/ml); assay type: physicochemical; details: for solubility at 24 h: read-out: Soluble amount
Outline: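 Peptides at 10 mg/ml (purity-corrected) in 100 mM phosphate pH 7.4, optionally with 2.7 mg/ml m-cresol; gentle agitation 1 h, then 5° C. overnight (24 h). Supernatant after 15 min centrifugation at 2500 RCF quantified by UHPLC-UV, with sequence-based extinction coefficients.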

[2] = target: T1, human GIP receptor (hGIPR) (Homo sapiens, UniProt P48546); test: Binding assay, displacement of [125I]GIP from HEK-293 membranes over-expressing GIPR (SPA); details: [125I]GIP displacement
T1 sequence (P48546 22-466): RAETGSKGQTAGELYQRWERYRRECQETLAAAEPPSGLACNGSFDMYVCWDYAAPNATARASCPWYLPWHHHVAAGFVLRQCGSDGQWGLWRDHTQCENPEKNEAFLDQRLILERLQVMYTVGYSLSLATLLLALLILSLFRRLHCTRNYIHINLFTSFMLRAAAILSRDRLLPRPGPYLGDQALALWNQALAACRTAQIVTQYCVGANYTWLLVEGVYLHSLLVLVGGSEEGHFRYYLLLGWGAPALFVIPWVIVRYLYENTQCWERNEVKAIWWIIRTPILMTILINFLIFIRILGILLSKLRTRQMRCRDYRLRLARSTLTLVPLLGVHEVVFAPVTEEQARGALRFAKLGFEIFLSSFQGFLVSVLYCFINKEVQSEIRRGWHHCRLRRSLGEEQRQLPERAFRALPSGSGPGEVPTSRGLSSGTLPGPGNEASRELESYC
Outline: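 Membranes from HEK-293 cells over-expressing human GIPR or GLP-1R, isolated by homogenising, sonicating and ultracentrifuging at 100000×g into HEPES/EDTA/NaCl buffer with protease inhibitors, were used for binding.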

[3] = target: T2, human GLP-1 receptor (hGLP-1R) (Homo sapiens, UniProt P43220); test: In vitro cellular cAMP assay for GLP-1 receptor efficacy (HEK-293 cell line over-expressing receptor); assay type: cell-based; details: HEK-293, 0.1% BSA
T2 sequence (P43220 24-463): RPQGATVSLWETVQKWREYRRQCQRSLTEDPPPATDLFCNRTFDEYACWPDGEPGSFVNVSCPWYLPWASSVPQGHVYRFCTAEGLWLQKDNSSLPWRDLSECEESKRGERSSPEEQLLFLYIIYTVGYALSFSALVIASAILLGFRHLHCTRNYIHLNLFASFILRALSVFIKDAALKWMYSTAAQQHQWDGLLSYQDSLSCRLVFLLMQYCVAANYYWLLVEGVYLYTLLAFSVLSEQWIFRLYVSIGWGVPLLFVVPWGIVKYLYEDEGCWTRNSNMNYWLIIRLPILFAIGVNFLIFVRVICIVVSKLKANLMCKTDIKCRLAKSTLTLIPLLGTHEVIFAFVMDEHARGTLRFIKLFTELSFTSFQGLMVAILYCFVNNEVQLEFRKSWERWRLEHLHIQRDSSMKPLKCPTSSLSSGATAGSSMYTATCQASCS

[4] = target: T2, human GLP-1 receptor (hGLP-1R); test: Binding assay, displacement of [125I]GLP-1 from HEK-293 membranes over-expressing GLP-1R (SPA); details: [125I]GLP-1 displacement
Method: (1) Preparation of Membranes from HEK-293 Cells Over-Expressing GIPR or GLP-1R
HEK-293 cells recombinantly over-expressing GIPR or GLP-1R were grown to 50% confluency, washed with warm 1×PBS (Gibco) and detached in HEPES/EDTA-buffer (100 mM HEPES pH 7.5, 5 mM EDTA). Cells were harvested by centrifugation at 4° C. and 3000×g and the pellets were stored at −80° C. until further processing.
After thawing on ice, pellets were resuspended in HEPES/EDTA-buffer and homogenized on ice for 1 min using Ultra-Turray T25. After subsequent sonification the cell debris was removed by centrifugation at 1000×g and 4° C. Supernatants were then ultra-centrifuged at 100000×g and 4° C. under vacuum for 30 min. Pellets were resuspended in HEPES/EDTA/NaCl-buffer (20 mM HEPES, 1 mM EDTA, 150 mM NaCl; add 1 Complete Mini Protease inhibitor cocktail to 10 ml buffer) and protein content was determined via BCA-Protein assay.
(2) Measurement of Binding Activity of Test Compounds to Human GIPR or GLP-1R

[5] = target: T3, human GIP receptor (Homo sapiens, UniProt P48546); test: In vitro cellular cAMP assay for GIP receptor efficacy (human adipocytes); assay type: cell-based; details: for EC50: read-out: hGIPR EC50; for Emax: read-out: hGIPR Emax
T3 construct: human adipocytes endogenously expressing the human GIP receptor; host or cells: human preadipocytes (Lonza) differentiated to adipocytes
T3 sequence (P48546 22-466): T1 sequence (P48546 22-466)
Outline: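 cAMP is read by HTRF (665/620 nm ratio, 1 h after reagents in lysis buffer) following 30 min compound exposure at room temperature. Cells are human preadipocyte-derived adipocytes, differentiated 6 days with insulin, dexamethasone, IBMX (200 μM), PPARγ agonist and L-thyroxine, seeded 5000 per well.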

[6] = target: T1, human GIP receptor (hGIPR); test: In vitro cellular cAMP assay for GIP receptor efficacy (HEK-293 cell line over-expressing receptor); assay type: cell-based
[7] = 100 mM phosphate buffer pH 7.4 (solubility buffer system A), pH 7.4, Solubility buffer system A: 100 mM phosphate buffer pH 7.4
[8] = pH 7.4, Solubility buffer system C: 100 mM phosphate buffer pH 7.4, 2.7 mg/ml m-cresol
[9] = EC50 hGIPR 0.1% BSA, HEK-293, 0.1% BSA

Compound	solubility at 24 h [1, 7]	solubility at 24 h [1, 8]	IC50 [2]	EC50 [3]	IC50 [4]	EC50 [5]	Emax [5]	EC50 [6, 9]	solubility ([1]; pH 7.4, Soluble amount)	EC50 ([6]; HEK-293, without albumin (0% HSA), read-out: EC50 hGIPR 0% HSA)
CC[C@H](C)[C@H](NC(=O)[C@H](CCCNC(=N)N)NC(=O)[C@H](CC(=O)O)NC(=O)[C@H](CCCCNC(=O)CN(C)C(=O)CN(C)C(=O)CN(C)C(=O)CC[C@H](NC(=O)CCCCCCCCCCCCCCCCC(=O)O)C(=O)O)NC(=O)C(C)(C)NC(=O)[C@@H](NC(=O)[C@H](CO)NC(=O)[C@H](CC(C)C)NC(=O)[C@H](CC(=O)O)NC(=O)[C@H](CO)NC(=O)[C@@H](NC(=O)[C@H](Cc1ccccc1)NC(=O)[C@@H](NC(=O)CNC(=O)[C@H](CCC(=O)O)NC(=O)C(C)(C)NC(=O)[C@@H](N)Cc1ccc(O)cc1)[C@@H](C)O)[C@@H](C)CC)[C@@H](C)CC)C(=O)N[C@@H](Cc1c[nH]cn1)C(=O)N[C@@H](CCC(N)=O)C(=O)NC(C)(C)C(=O)N[C@@H](CCC(=O)O)C(=O)N[C@@H](Cc1ccccc1)C(=O)N[C@H](C(=O)N[C@@H](CCC(=O)O)C(=O)N[C@@H](Cc1c[nH]c2ccccc12)C(=O)N[C@@H](CC(C)C)C(=O)N[C@@H](CC(C)C)C(=O)N[C@@H](C)C(=O)N[C@@H](CCC(N)=O)C(=O)N[C@@H](CCCNC(=N)N)C(=O)NCC(N)=O)[C@@H](C)CC [SEQ ID NO: 8, H2N-Y-Aib-E-G-T-F-I-S-D-L-S-I-Aib-K[{N-MeGly}3-gGlu-C18OH]-D-R-I-H-Q-Aib-E-F-I-E-W-L-L-A-Q-R-G-NH2]	> 10700 µg/mL	1800 µg/mL (≈ 423 µM)	0.1 nM	> 10 nM	139 nM	0.7 nM	128%	0.00745 nM	–	–
CC[C@H](C)[C@H](NC(=O)[C@H](CCCNC(=N)N)NC(=O)[C@H](CC(=O)O)NC(=O)[C@H](CCCCNC(=O)COCCOCCNC(=O)COCCOCCNC(=O)CC[C@H](NC(=O)CC[C@H](NC(=O)CCCCCCCCCCCCCCCCC(=O)O)C(=O)O)C(=O)O)NC(=O)C(C)(C)NC(=O)[C@@H](NC(=O)[C@H](CO)NC(=O)[C@H](CC(C)C)NC(=O)[C@H](CC(=O)O)NC(=O)[C@H](CO)NC(=O)[C@@H](NC(=O)[C@H](Cc1ccccc1)NC(=O)[C@@H](NC(=O)CNC(=O)[C@H](CCC(=O)O)NC(=O)C(C)(C)NC(=O)[C@@H](N)Cc1ccc(O)cc1)[C@@H](C)O)[C@@H](C)CC)[C@@H](C)CC)C(=O)N[C@@H](Cc1c[nH]cn1)C(=O)N[C@@H](CCC(N)=O)C(=O)NC(C)(C)C(=O)N[C@@H](CCC(=O)O)C(=O)N[C@@H](Cc1ccccc1)C(=O)N[C@H](C(=O)N[C@@H](CCC(=O)O)C(=O)N[C@@H](Cc1c[nH]c2ccccc12)C(=O)N[C@@H](CC(C)C)C(=O)N[C@@H](CC(C)C)C(=O)N[C@@H](C)C(=O)N[C@@H](CCC(N)=O)C(=O)N[C@@H](CCCNC(=N)N)C(=O)NCC(N)=O)[C@@H](C)CC [SEQ ID NO: 9, H2N-Y-Aib-E-G-T-F-I-S-D-L-S-I-Aib-K[{AEEA}2-{gGlu}2-C18OH]-D-R-I-H-Q-Aib-E-F-I-E-W-L-L-A-Q-R-G-NH2]	> 10200 µg/mL	7700 µg/mL (≈ 1720 µM)	0.6 nM	> 10 nM	224 nM	0.8 nM	108%	0.00917 nM	–	–
CC[C@H](C)[C@H](NC(=O)[C@H](CCCNC(=N)N)NC(=O)[C@H](CC(=O)O)NC(=O)[C@H](CCCCNC(=O)COCCOCCNC(=O)COCCOCCNC(=O)CC[C@H](NC(=O)CCCCCCCCCCCCCCCCCCC(=O)O)C(=O)O)NC(=O)C(C)(C)NC(=O)[C@@H](NC(=O)[C@H](CO)NC(=O)[C@H](CC(C)C)NC(=O)[C@H](CC(=O)O)NC(=O)[C@H](CO)NC(=O)[C@@H](NC(=O)[C@H](Cc1ccccc1)NC(=O)[C@@H](NC(=O)CNC(=O)[C@H](CCC(=O)O)NC(=O)C(C)(C)NC(=O)[C@@H](N)Cc1ccc(O)cc1)[C@@H](C)O)[C@@H](C)CC)[C@@H](C)CC)C(=O)N[C@@H](Cc1c[nH]cn1)C(=O)N[C@@H](CCC(N)=O)C(=O)NC(C)(C)C(=O)N[C@@H](CCC(=O)O)C(=O)N[C@@H](Cc1ccccc1)C(=O)N[C@H](C(=O)N[C@@H](CCC(=O)O)C(=O)N[C@@H](Cc1c[nH]c2ccccc12)C(=O)N[C@@H](CC(C)C)C(=O)N[C@@H](CC(C)C)C(=O)N[C@@H](C)C(=O)N[C@@H](CCC(N)=O)C(=O)N[C@@H](CCCNC(=N)N)C(=O)NCC(N)=O)[C@@H](C)CC [SEQ ID NO: 11, H2N-Y-Aib-E-G-T-F-I-S-D-L-S-I-Aib-K[{AEEA}2-gGlu-C20OH]-D-R-I-H-Q-Aib-E-F-I-E-W-L-L-A-Q-R-G-NH2]	10700 µg/mL (≈ 2450 µM)	–	0.2 nM	> 10 nM	97 nM	1.3 nM	113%	0.0192 nM	–	–

More lines, in order of falling IC50 [2], values ahead:

solubility at 24 h [1, 7]	solubility at 24 h [1, 8]	IC50 [2]	EC50 [3]	IC50 [4]	EC50 [5]	Emax [5]	EC50 [6, 9]	solubility ([1]; pH 7.4, Soluble amount)	EC50 ([6]; HEK-293, without albumin (0% HSA), read-out: EC50 hGIPR 0% HSA)	Compound
7300 µg/mL (≈ 1620 µM)	7200 µg/mL (≈ 1600 µM)	0.5 nM	> 10 nM	183 nM	1.2 nM	98%	0.0222 nM	–	–	CC[C@H](C)[C@H](NC(=O)[C@H](CCCNC(=N)N)NC(=O)[C@H](CC(=O)O)NC(=O)[C@H](CCCCNC(=O)COCCOCCNC(=O)COCCOCCNC(=O)CC[C@H](NC(=O)CC[C@H](NC(=O)CCCCCCCCCCCCCCCCCCC(=O)O)C(=O)O)C(=O)O)NC(=O)C(C)(C)NC(=O)[C@@H](NC(=O)[C@H](CO)NC(=O)[C@H](CC(C)C)NC(=O)[C@H](CC(=O)O)NC(=O)[C@H](CO)NC(=O)[C@@H](NC(=O)[C@H](Cc1ccccc1)NC(=O)[C@@H](NC(=O)CNC(=O)[C@H](CCC(=O)O)NC(=O)C(C)(C)NC(=O)[C@@H](N)Cc1ccc(O)cc1)[C@@H](C)O)[C@@H](C)CC)[C@@H](C)CC)C(=O)N[C@@H](Cc1c[nH]cn1)C(=O)N[C@@H](CCC(N)=O)C(=O)NC(C)(C)C(=O)N[C@@H](CCC(=O)O)C(=O)N[C@@H](Cc1ccccc1)C(=O)N[C@H](C(=O)N[C@@H](CCC(=O)O)C(=O)N[C@@H](Cc1c[nH]c2ccccc12)C(=O)N[C@@H](CC(C)C)C(=O)N[C@@H](CC(C)C)C(=O)N[C@@H](C)C(=O)N[C@@H](CCC(N)=O)C(=O)N[C@@H](CCCNC(=N)N)C(=O)NCC(N)=O)[C@@H](C)CC [SEQ ID NO: 10, H2N-Y-Aib-E-G-T-F-I-S-D-L-S-I-Aib-K[{AEEA}2-{gGlu}2-C20OH]-D-R-I-H-Q-Aib-E-F-I-E-W-L-L-A-Q-R-G-NH2]
–	–	0.2 nM	> 10 nM	935 nM	0.8 nM	110%	0.0821 nM	7400 µg/mL (≈ 1700 µM)	0.00137 nM	CC[C@H](C)[C@H](NC(=O)[C@H](CCCNC(=N)N)NC(=O)[C@H](CC(=O)O)NC(=O)[C@H](CCCCNC(=O)COCCOCCNC(=O)COCCOCCNC(=O)CC[C@H](NC(=O)CCCCCCCCCCCCCCCCC(=O)O)C(=O)O)NC(=O)C(C)(C)NC(=O)[C@@H](NC(=O)[C@H](CO)NC(=O)[C@H](CC(C)C)NC(=O)[C@H](CC(=O)O)NC(=O)[C@H](CO)NC(=O)[C@@H](NC(=O)[C@@](C)(CC)NC(=O)[C@@H](NC(=O)CNC(=O)[C@H](CCC(=O)O)NC(=O)C(C)(C)NC(=O)[C@@H](N)Cc1ccc(O)cc1)[C@@H](C)O)[C@@H](C)CC)[C@@H](C)CC)C(=O)N[C@@H](Cc1c[nH]cn1)C(=O)N[C@@H](CCC(N)=O)C(=O)N[C@@H](CCC(=O)O)C(=O)N[C@@H](CCC(=O)O)C(=O)N[C@@](C)(Cc1ccccc1)C(=O)N[C@H](C(=O)N[C@@H](CCC(=O)O)C(=O)N[C@@H](Cc1c[nH]c2ccccc12)C(=O)N[C@@H](CC(C)C)C(=O)N[C@@H](CC(C)C)C(=O)N[C@@H](C)C(=O)N[C@@H](CCC(N)=O)C(=O)N[C@@H](CCCNC(=N)N)C(=O)NCC(N)=O)[C@@H](C)CC [SEQ ID NO: 17, H2N-Y-Aib-E-G-T-Iva-I-S-D-L-S-I-Aib-K[{AEEA}2-gGlu-C18OH]-D-R-I-H-Q-E-E-Mph-I-E-W-L-L-A-Q-R-G-NH2]
